Values quoted from earlier work in article PMC5296674, “Evaluation of the Availability and Antioxidant Capacity of Maillard Compounds Present in Bread Crust: Studies in Caco-2 Cells” (Foods, 2017).

System: Caco-2 cells
Design: method as in PMID 19338346

Compound	Saturation of transport (100 and 500 μM)	HMF transport rate (100 µM HMF solution, 4 h of incubation)
CC1=C(O)C(=O)C(C)O1 (centres unmarked) [HDMF, 4-hydroxy-2,5-dimethyl-3(2H)-furanone]	saturation of the transport was not observed	–
O=Cc1ccc(CO)o1 [HMF, hydroxymethylfurfural]	–	around 20%
